Measurements published in US20030027722A1, “Influencing the activity of plant growth regulators” (priority 1998, published 2003).

How the values were obtained:
[1] = tested on: plantroots; assay: root induction by chemically modified auxins on various plants; conditions: in vivo
Excerpt: Attaching IAA to BSA is done to increase the amount of IAA administered to the roots. Up to 32 IAA molecules can be attached to BSA in 2 different ways. Either as N-conjugate of IAA or as C-conjugate. Upon addition of the IAA-BSA to plantroots, the IAA is split off in the root and leads to the availability of IAA during a longer period allowing the root tissue to become sensitive.

[2] = tested on: apple stalk slices; assay: rooting regeneration on apple stalk slices with elicitors; type: cell-based; conditions: roots, apple, 1 μM indolebutyric or indoleacetic acid, 1 or 3 days
Description: The effect of the elicitors on rooting regeneration on apple stalk slices was studied. The stalk slices were incubated on medium with elicitors in combination with a sub-optimal auxin concentration (1 μM indolebutyric acid or 1 μM indoleacetic acid) which were added for 1 or 3 days to the plant tissue for testing. The increase was measured in the number of regenerated roots compared to the auxin control.

[3] = tested on: Carnations (cultivar Miledy); assay: senescence of carnations after simulated dry transport; type: in vivo, carnation
Description: The flowers were treated for one day with silver thiosulfate (STS), t-BOC-AOA, or with water in the case of controls. The flowers were then subjected to simulated dry transport conditions: 4 days at 8° C. and a relative humidity of 75%. The bottom 5 cm of each stem was then removed, and the flowers were incubated on water for 2 hours at 8° C. and a relative humidity of 75%. The flowers were then transferred to a climate room with standard flower development conditions (20° C., relative humidity of 75%, light level of 1000 lux). Senescence of the flowers was then determined every day. If flowers started wilting (mostly at the edges of the petals) or changed color they were no longer in the category of “flowers in a perfect stage” (see Table 3).

[4] = tested on: rose, chrysanthemum, carnation; assay: rooting powder comparison, average over species; type: in vivo; conditions: for average category: average over the species tested; for overall assessment of rooting powders from Table 2: in vivo
Excerpt: (§1) d) In Table 2 standard indol butyric acid (IBA), which is the active component in most currently used rooting powders, is compared with indol hexanolic acid (IHA) and two BSA adducts, both—coupled, namely IBA and indole acetic acid (BSA-N-IAA). The effect on rooting and the plant development (stem growth, outgrowth of new shoots, synchronicity of growth of a population of plants) were inter alia factors determining the place in the categories which ranged from 1 to 6. The compounds with the best relative overall effect on rooting and development were placed in category I. Rooting and subsequent development of scions for different types of herbaceous and woody plants differs largely for those types of plants. A rose cultivar, “enermus stur cinq”, was used as an example of a recalcitrant woody plant. The chrysanthemum species “regan” is an example of an easy to root herbaceous plant.

[5] = tested on: tissue explants of rose; assay: shoot formation on tissue explants of rose; type: cell-based
Description: It was also observed that tissue explants of rose when treated with IBA (normal addition) or IHA, respectively, formed about 50 times more shoots (2 shoots versus 100 per 20 tissue explants) in the latter case.
In the studies for new applications of PGRs and/or elicitors, which were performed within the framework of the present invention, several new and unexpected observations were made. […] Furthermore, the inventors established that elicitors do cause a statistically significant growth retardation of all tissues, as can be illustrated for rose shoots. This effect was enhanced by PGR(s), in casu antigibberelins, i.e. paclobutrasol. […] Finally the observation was made that when tissue explants of rose were treated with respectively IBA (normal addition) or IHA, in the last case about 50 times more shoots were formed (2 shoots versus 100 per 20 tissue explants).

[6] = tested on: chrysanthemum; assay: rooting powder comparison, rooting and development of scions, chrysanthemum; type: in vivo; set-up: key: 1: The compounds with the best relative overall effect on rooting and development were placed in category I; categories which ranged from 1 to 6
Excerpt: as §1

[7] = tested on: apple and rose; assay: root induction in apple and rose; type: in vivo
Excerpt: It is also possible to offer a hormone precursor, which is converted into an active hormone by metabolic processes. Indole-3-hexanoic acid (I-H-A) is converted by two beta-oxidation steps (the enzymes therefor are present in the plant) into the auxin indole-3-acetic acid (I-A-A). I-H-A is thus a special form of a slow-release source.

[8] = tested on: rose; assay: rooting powder comparison, rooting and development of scions, rose; type: in vivo; set-up: key: 1: The compounds with the best relative overall effect on rooting and development were placed in category I; categories which ranged from 1 to 6
Excerpt: as §1

[9] = tested on: carnation; assay: rooting powder comparison, rooting and development of scions, carnation; type: in vivo; set-up: key: 1: The compounds with the best relative overall effect on rooting and development were placed in category I; categories which ranged from 1 to 6
Excerpt: as §1

[10] = tested on: Brassica napens; assay: microspore embryogenesis; type: cell-based; conditions: in combination with colchicine
[11] = tested on: cut flowers (carnations); assay: retarding the aging of cut flowers; type: in vivo, carnation
Description: The DMF was evaporated and the remaining solid was dissolved in methanol and filtered. Diluted hydrochloric acid was added to the methanol solution. After 2 hours at room temperature the solvent was evaporated and G-A-A was obtained.

[12] = tested on: apple; assay: roots per tissue fragment in apple; type: cell-based
Excerpt: An apple IAA may induce a maximum of 3.5 roots per tissue fragment, while IAA-N-BSA induces a maximum of 8 roots per tissue fragment. Very recalcitrant trees like summer oak and cork oak can be rooted to a much higher percentage than with any of the conventionally applied rooting powders. The compounds described in EXAMPLE 3 and together with elicitors in Table 1 show similar effects.

[13] = tested on: apple and rose; assay: rooting in apple and rose, stem-disk method; type: cell-based; conditions: rooting powder, stem-disks
Description: The auxin compounds were tested with respect to rooting in apple and rose
b) Tests are performed by the stem-disk method as published by Van der Krieken et al., Plant Cell Reports (1993), vol. 12, 203-206, in which the number of roots of a large number of stem-disks cut from a particular plant are counted and treated with rooting powder containing in this case the compounds described.

[14] = 7 d after the start of the experiment
[15] = 8 d after the start of the experiment
[16] = 9 d after the start of the experiment
[17] = 10 d after the start of the experiment
[18] = 11 d after the start of the experiment
[19] = 12 d after the start of the experiment
[20] = 13 d after the start of the experiment
[21] = 14 d after the start of the experiment
[22] = 15 d after the start of the experiment
[23] = 16 d after the start of the experiment
[24] = 17 d after the start of the experiment
[25] = 18 d after the start of the experiment
[26] = 19 d after the start of the experiment
[27] = 20 d after the start of the experiment
[28] = 21 d after the start of the experiment
[29] = 22 d after the start of the experiment
[30] = chrys. regan (easy to root herbaceous plant)
[31] = rose enermus stur cinq (recalcitrant woody plant)

## IAA-C-BSA: indoleacetic acid-C-conjugate with BSA
[1]
  effectiveness in root induction, comparison: somewhat less effective in root induction as IAA-N-BSA, but still better than IAA alone

## O=C(OC[C@H]1O[C@@H](OC(=O)c2cc(O)c(O)c(OC(=O)c3cc(O)c(O)c(O)c3)c2)[C@H](OC(=O)c2cc(O)c(O)c(OC(=O)c3cc(O)c(O)c(O)c3)c2)[C@@H](OC(=O)c2cc(O)c(O)c(OC(=O)c3cc(O)c(O)c(O)c3)c2)[C@@H]1OC(=O)c1cc(O)c(O)c(OC(=O)c2cc(O)c(O)c(O)c2)c1)c1cc(O)c(O)c(OC(=O)c2cc(O)c(O)c(O)c2)c1 [tannic acid]
[2]; elicitor 1 μM
  increased regeneration in relation to control (auxin alone): 225%

## CC(C)(C)OC(=O)NOCC(=O)O [t-Boc-AOA, tertiair-butyloxycarbonylaminooxyacetic acid]
[3]; [14]
  Percentage of flowers in the perfect stage after treatment: 100%
[3]; [15]
  Percentage of flowers in the perfect stage after treatment: 100%
[3]; [16]
  Percentage of flowers in the perfect stage after treatment: 100%
[3]; [17]
  Percentage of flowers in the perfect stage after treatment: 100%
[3]; [18]
  Percentage of flowers in the perfect stage after treatment: 100%
[3]; [19]
  Percentage of flowers in the perfect stage after treatment: 100%
[3]; [20]
  Percentage of flowers in the perfect stage after treatment: 100%
[3]; [21]
  Percentage of flowers in the perfect stage after treatment: 100%
[3]; [22]
  Percentage of flowers in the perfect stage after treatment: 100%
[3]; [23]
  Percentage of flowers in the perfect stage after treatment: 100%
[3]; [24]
  Percentage of flowers in the perfect stage after treatment: 85%
[3]; [25]
  Percentage of flowers in the perfect stage after treatment: 75%
[3]; [26]
  Percentage of flowers in the perfect stage after treatment: 53%
[3]; [27]
  Percentage of flowers in the perfect stage after treatment: 30%
[3]; [28]
  Percentage of flowers in the perfect stage after treatment: 4%
[3]; [29]
  Percentage of flowers in the perfect stage after treatment: 0%
[3]; summary of Table 3
  delaying flower senescence, compared with STS: generally comparable to or superior to STS

## O=C(O)CCCCCc1c[nH]c2ccccc12 [IHA, Indole-3-hexanoic acid]
[4]
  average category: 1.33
  overall assessment of rooting powders from Table 2: very generally applicable and very effective
[5]
  shoots formed: 100 shoots per 20 tissue explants
  times more shoots than with IBA: about 50
[6]; [30]
  category of relative overall effect on rooting and plant development: 2
[6]; chrys. snowdon
  category of relative overall effect on rooting and plant development: 1
[7]
  activity in root induction relative to I-A-A: thirty times more active than I-A-A
[8]; [31]
  category of relative overall effect on rooting and plant development: 1
[8]; rose n. brier
  category of relative overall effect on rooting and plant development: 1
[9]; carnation m. brilj.
  category of relative overall effect on rooting and plant development: 1
[9]; carnation tempo
  category of relative overall effect on rooting and plant development: 2

## CCCCCCCCC(=O)O [nonanoic acid]
[10]
  increase in microspore embryogenesis: 125%
[2]; elicitor 0.1-1 μM
  increased regeneration in relation to control (auxin alone): 300%

## CC/C=C\C[C@H]1C(=O)CC[C@@H]1CC(=O)O [jasmonic acid]
[2]; elicitor 0.01 μM
  increased regeneration in relation to control (auxin alone): 210%

## CC(C)(NC(=O)CCC(=O)NC(C)(C)C(=O)O)C(=O)O [A-S-A]
[11]; in water, concentration 5×10^−5 to 10^−3 M, carnations
  activity in retarding the aging of the flowers, times relative to non-modified AIB: 50

## IAA-N-BSA: indoleacetic acid-N-conjugate with BSA
[4]
  average category: 1.8
  overall assessment of rooting powders from Table 2: especially suited for recalcitrant plants
[6]; [30]
  category of relative overall effect on rooting and plant development: 1
[6]; chrys. snowdon
  category of relative overall effect on rooting and plant development: 2
[8]; [31]
  category of relative overall effect on rooting and plant development: 1
[8]; rose n. brier
  category of relative overall effect on rooting and plant development: 3
[12]
  maximum of roots per tissue fragment: 8 roots per tissue fragment
[9]; carnation m. brilj.
  category of relative overall effect on rooting and plant development: 1
[9]; carnation tempo
  category of relative overall effect on rooting and plant development: 3

## C=CC(C)(C)OC[C@H]1O[C@H](O[C@@H]2C3=C([C@H](C)COC(C)=O)C[C@H](O)[C@]3(C)/C=C3/[C@@H](COC)CC[C@H]3[C@@H](C)[C@H]2O)[C@H](O)[C@@H](OC(C)=O)[C@@H]1O [fusicocine]
[2]; elicitor 0.01 μM
  increased regeneration in relation to control (auxin alone): 75%

## glucose-acetate-amino-oxyacetic acid [G-A-A]
[11]; carnation
  effect against aging: effective means against aging

## CC(C)(NC(=O)CCCc1c[nH]c2ccccc12)C(=O)O [IBA-AIB]
[13]
  rooting compared with standard hormone treatment / IBA alone: more active than the standard hormone treatment

## CC(=O)Nc1ccc(O)cc1 [4-acetamidophenol]
[2]; elicitor 1 μM
  increased regeneration in relation to control (auxin alone): 75%

## indole butyric acid [IBA, reference compound]
[4]
  average category: 2.25
[5]
  shoots formed: 2 shoots per 20 tissue explants
[6]; [30]
  category of relative overall effect on rooting and plant development: 4
[6]; chrys. snowdon
  category of relative overall effect on rooting and plant development: 1
[8]; [31]
  category of relative overall effect on rooting and plant development: 3
[8]; rose n. brier
  category of relative overall effect on rooting and plant development: 1

## IBA-N-BSA: N-conjugate with BSA made with IBA instead of IAA
[4]
  average category: 2.0
[6]; [30]
  category of relative overall effect on rooting and plant development: 4
[6]; chrys. snowdon
  category of relative overall effect on rooting and plant development: 1
[8]; [31]
  category of relative overall effect on rooting and plant development: 2
[8]; rose n. brier
  category of relative overall effect on rooting and plant development: 1
[9]; carnation m. brilj.
  category of relative overall effect on rooting and plant development: 1
[9]; carnation tempo
  category of relative overall effect on rooting and plant development: 3

## silver thiosulfate [STS, reference compound]
[3]; [14]
  Percentage of flowers in the perfect stage after treatment: 100%
[3]; [15]
  Percentage of flowers in the perfect stage after treatment: 100%
[3]; [16]
  Percentage of flowers in the perfect stage after treatment: 100%
[3]; [17]
  Percentage of flowers in the perfect stage after treatment: 100%
[3]; [18]
  Percentage of flowers in the perfect stage after treatment: 100%
[3]; [19]
  Percentage of flowers in the perfect stage after treatment: 100%
[3]; [20]
  Percentage of flowers in the perfect stage after treatment: 100%
[3]; [21]
  Percentage of flowers in the perfect stage after treatment: 100%
[3]; [22]
  Percentage of flowers in the perfect stage after treatment: 100%
[3]; [23]
  Percentage of flowers in the perfect stage after treatment: 100%
[3]; [24]
  Percentage of flowers in the perfect stage after treatment: 88%
[3]; [25]
  Percentage of flowers in the perfect stage after treatment: 65%
[3]; [26]
  Percentage of flowers in the perfect stage after treatment: 8%
[3]; [27]
  Percentage of flowers in the perfect stage after treatment: 0%
[3]; [28]
  Percentage of flowers in the perfect stage after treatment: 0%
[3]; [29]
  Percentage of flowers in the perfect stage after treatment: 0%

## O=C(O)Cc1c[nH]c2ccccc12 [IAA, indole-3-acetic acid, reference compound]
[12]
  maximum of roots per tissue fragment: 3.5 roots per tissue fragment
